Experimental data: the NIST ThermoML archive (doi:10.1016/j.jct.2016.12.033)

Experiment: mn = molality of the nth substance listed, in mol/kg
Conditions: 101.3 kPa, Liquid; for viscosity: Capillary tube (Ostwald / Ubbelohde) method; for mass density: Pycnometric method

Cc1ncc(CO)c(CO)c1O.Cl [5-hydroxy-6-methyl-3,4-pyridinedimethanol hydrochloride] + O
Conditions | mass density [kg/m3] | viscosity [mPa·s]
275.15 K, m1 = 0.0101 | 1000.6 | 1.687
275.15 K, m1 = 0.0204 | 1001.28 | 1.695
275.15 K, m1 = 0.03 | 1001.91 | 1.703
275.15 K, m1 = 0.0357 | 1002.27 | 1.706
275.15 K, m1 = 0.0401 | 1002.55 | 1.708
275.15 K, m1 = 0.0454 | 1002.9 | 1.712
275.15 K, m1 = 0.0505 | 1003.22 | 1.719
275.15 K, m1 = 0.0557 | 1003.54 | 1.722
275.15 K, m1 = 0.0695 | 1004.4 | 1.725
275.15 K, m1 = 0.0766 | 1004.84 | 1.73
275.15 K, m1 = 0.0801 | 1005.06 | 1.735
275.15 K, m1 = 0.0857 | 1005.41 | 1.737
275.15 K, m1 = 0.0882 | 1005.58 | 1.739
275.15 K, m1 = 0.1004 | 1006.38 | 1.75
277.15 K, m1 = 0.0099 | 1000.61 | 1.576
277.15 K, m1 = 0.0202 | 1001.27 | 1.58
277.15 K, m1 = 0.0252 | 1001.59 | 1.584
277.15 K, m1 = 0.0299 | 1001.89 | 1.588
277.15 K, m1 = 0.035 | 1002.22 | 1.592
277.15 K, m1 = 0.04 | 1002.54 | 1.597
277.15 K, m1 = 0.0497 | 1003.15 | 1.603
277.15 K, m1 = 0.0598 | 1003.79 | 1.606
277.15 K, m1 = 0.0658 | 1004.16 | 1.607
277.15 K, m1 = 0.0683 | 1004.32 | 1.609
277.15 K, m1 = 0.0753 | 1004.75 | 1.615
277.15 K, m1 = 0.0797 | 1005.02 | 1.619
277.15 K, m1 = 0.0882 | 1005.55 | 1.625
277.15 K, m1 = 0.1004 | 1006.29 | 1.629
279.15 K, m1 = 0.01 | 1000.56 | 1.477
279.15 K, m1 = 0.0199 | 1001.18 | 1.479
279.15 K, m1 = 0.0253 | 1001.51 | 1.484
279.15 K, m1 = 0.0298 | 1001.8 | 1.488
279.15 K, m1 = 0.0351 | 1002.13 | 1.495
279.15 K, m1 = 0.0397 | 1002.42 | 1.5
279.15 K, m1 = 0.0492 | 1003 | 1.499
279.15 K, m1 = 0.055 | 1003.36 | 1.507
279.15 K, m1 = 0.0578 | 1003.53 | 1.505
279.15 K, m1 = 0.0648 | 1003.96 | 1.515
279.15 K, m1 = 0.069 | 1004.22 | 1.522
279.15 K, m1 = 0.0798 | 1004.9 | 1.524
279.15 K, m1 = 0.0897 | 1005.51 | 1.53
279.15 K, m1 = 0.0996 | 1006.16 | 1.535

O=C1O[C@H]([C@@H](O)CO)C([O-])=C1O.[Na+] [sodium L-ascorbate] + O
Conditions | mass density [kg/m3] | viscosity [mPa·s]
275.15 K, m1 = 0.01 | 1001.05 | 1.68
275.15 K, m1 = 0.0201 | 1002.2 | 1.691
275.15 K, m1 = 0.0303 | 1003.31 | 1.703
275.15 K, m1 = 0.0348 | 1003.83 | 1.703
275.15 K, m1 = 0.04 | 1004.41 | 1.706
275.15 K, m1 = 0.0451 | 1004.94 | 1.708
275.15 K, m1 = 0.05 | 1005.5 | 1.718
275.15 K, m1 = 0.0598 | 1006.59 | 1.727
275.15 K, m1 = 0.0699 | 1007.71 | 1.736
275.15 K, m1 = 0.0749 | 1008.27 | 1.745
275.15 K, m1 = 0.0835 | 1009.12 | 1.748
275.15 K, m1 = 0.0849 | 1009.32 | 1.747
275.15 K, m1 = 0.0902 | 1009.85 | 1.757
275.15 K, m1 = 0.0999 | 1010.96 | 1.765
277.15 K, m1 = 0.01 | 1001.09 | 1.572
277.15 K, m1 = 0.02 | 1002.17 | 1.578
277.15 K, m1 = 0.0301 | 1003.31 | 1.586
277.15 K, m1 = 0.0351 | 1003.85 | 1.591
277.15 K, m1 = 0.0402 | 1004.45 | 1.595
277.15 K, m1 = 0.05 | 1005.5 | 1.601
277.15 K, m1 = 0.0601 | 1006.59 | 1.609
277.15 K, m1 = 0.065 | 1007.13 | 1.616
277.15 K, m1 = 0.0697 | 1007.7 | 1.619
277.15 K, m1 = 0.075 | 1008.2 | 1.626
277.15 K, m1 = 0.0798 | 1008.75 | 1.628
277.15 K, m1 = 0.0851 | 1009.29 | 1.634
277.15 K, m1 = 0.0898 | 1009.82 | 1.641
277.15 K, m1 = 0.1003 | 1010.95 | 1.646
279.15 K, m1 = 0.0105 | 1001.12 | 1.479
279.15 K, m1 = 0.0201 | 1002.16 | 1.482
279.15 K, m1 = 0.0301 | 1003.23 | 1.491
279.15 K, m1 = 0.0348 | 1003.74 | 1.494
279.15 K, m1 = 0.0402 | 1004.33 | 1.498
279.15 K, m1 = 0.045 | 1004.84 | 1.503
279.15 K, m1 = 0.0501 | 1005.39 | 1.506
279.15 K, m1 = 0.0602 | 1006.49 | 1.516
279.15 K, m1 = 0.065 | 1007.01 | 1.52
279.15 K, m1 = 0.0699 | 1007.54 | 1.531
279.15 K, m1 = 0.0752 | 1008.12 | 1.532
279.15 K, m1 = 0.0852 | 1009.19 | 1.538
279.15 K, m1 = 0.0904 | 1009.74 | 1.541
279.15 K, m1 = 0.1005 | 1010.79 | 1.548

Cc1ncc(C[n+]2csc(CCO)c2C)c(N)n1.Cl.[Cl-] [thiamine hydrochloride] + O
Conditions | mass density [kg/m3] | viscosity [mPa·s]
275.15 K, m1 = 0.0101 | 1001.03 | 1.692
275.15 K, m1 = 0.0201 | 1002.1 | 1.7
275.15 K, m1 = 0.0249 | 1002.6 | 1.712
275.15 K, m1 = 0.0302 | 1003.15 | 1.718
275.15 K, m1 = 0.04 | 1004.19 | 1.728
275.15 K, m1 = 0.0451 | 1004.73 | 1.736
275.15 K, m1 = 0.0499 | 1005.24 | 1.745
275.15 K, m1 = 0.055 | 1005.78 | 1.752
275.15 K, m1 = 0.0611 | 1006.45 | 1.759
275.15 K, m1 = 0.0645 | 1006.81 | 1.76
275.15 K, m1 = 0.0701 | 1007.4 | 1.771
275.15 K, m1 = 0.0751 | 1007.91 | 1.776
275.15 K, m1 = 0.0792 | 1008.33 | 1.776
275.15 K, m1 = 0.0897 | 1009.33 | 1.788
275.15 K, m1 = 0.1001 | 1010.2 | 1.8
277.15 K, m1 = 0.0101 | 1001.04 | 1.575
277.15 K, m1 = 0.0201 | 1002.1 | 1.591
277.15 K, m1 = 0.025 | 1002.61 | 1.593
277.15 K, m1 = 0.0299 | 1003.12 | 1.604
277.15 K, m1 = 0.0401 | 1004.18 | 1.61
277.15 K, m1 = 0.0452 | 1004.7 | 1.621
277.15 K, m1 = 0.0501 | 1005.2 | 1.627
277.15 K, m1 = 0.055 | 1005.69 | 1.632
277.15 K, m1 = 0.0598 | 1006.18 | 1.64
277.15 K, m1 = 0.0653 | 1006.74 | 1.646
277.15 K, m1 = 0.0704 | 1007.25 | 1.66
277.15 K, m1 = 0.0803 | 1008.25 | 1.672
277.15 K, m1 = 0.0822 | 1008.45 | 1.671
277.15 K, m1 = 0.0898 | 1009.24 | 1.678
279.15 K, m1 = 0.008 | 1000.76 | 1.481
279.15 K, m1 = 0.02 | 1002 | 1.494
279.15 K, m1 = 0.0249 | 1002.52 | 1.497
279.15 K, m1 = 0.0301 | 1003.05 | 1.505
279.15 K, m1 = 0.04 | 1004.08 | 1.512
279.15 K, m1 = 0.045 | 1004.59 | 1.517
279.15 K, m1 = 0.0501 | 1005.11 | 1.521
279.15 K, m1 = 0.0552 | 1005.63 | 1.527
279.15 K, m1 = 0.0603 | 1006.15 | 1.529
279.15 K, m1 = 0.0652 | 1006.65 | 1.542
279.15 K, m1 = 0.0703 | 1007.16 | 1.549
279.15 K, m1 = 0.0751 | 1007.64 | 1.556
279.15 K, m1 = 0.0798 | 1008.1 | 1.563
279.15 K, m1 = 0.0897 | 1009.09 | 1.57
279.15 K, m1 = 0.1001 | 1010.12 | 1.581
